Measurements from patent US9855230B2 (ViiV Healthcare UK (No. 5) Limited, priority 2014, dated 2018).
pEC50: −log10 of the molar value. Structures can show the parent of a compound that is named as a salt. Where two headings read alike, the source gives them in different places.

How the values were obtained:
[1] = system: recombinant NL4-3 virus (nef section replaced with Renilla luciferase gene) in MT-2 cells; experiment: whole plant or invertebrate; format: cell-based, HIV
Method in brief: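 Nef-deleted NL4-3 reporter virus carrying Renilla luciferase was used to infect MT-2 cells in the presence of serial compound dilutions. After 4-5 days of infection, antiviral activity was quantified from luciferase activity using a live-cell substrate.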

[2] = Compound cytotoxicity (CC50), XTT-based colorimetric assay; format: cell-based; conditions: human; uninfected MT2 cells, day 4, XTT assay
Method in brief: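 Run under the antiviral-assay protocol but without virus. Viability was read on day 4 and CC50 values were derived from the readout.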

[3] = NL43, luciferase activity in MT-2 cells infected 4-5 days with recombinant NL4-3 virus, read-out: Activity
[4] = NL43, luciferase activity in MT-2 cells infected 4-5 days with recombinant NL4-3 virus, read-out: EC50

SMILES	pEC50 [1, 3]	CC50 at 4 day [2] [nM]	pEC50 ([1]; NL43, read-out: Activity)	pEC50 [1, 4]	pEC50 ([1]; NL43)
Cc1ccccc1S(=O)(=O)NC(=O)N[C@@H](Cc1cc(F)cc(F)c1)c1nccn1-c1ccc2c(c1)CCO2 [Example 82, (S)-N-((2-(3,5-difluorophenyl)-1-(1-(2,3-dihydrobenzofuran-5-yl)-1H-imidazol-2-yl)ethyl)carbamoyl)-2-methylbenzenesulfonamide]	6.00 to 7.00	> 100000			
COc1ccc(Cn2c(Br)cnc2[C@H](Cc2ccccc2)NC(=O)NS(=O)(=O)c2ccc(C)cc2)cc1 [Example 83, (S)-N-((1-(5-bromo-1-(4-methoxybenzyl)-1H-imidazol-2-yl)-2-phenylethyl)carbamoyl)-4-methylbenzenesulfonamide]	< 6.00	> 33000			
CCOc1ccc(-c2cccnc2[C@H](Cc2ccccc2)NC(=O)NS(=O)(=O)c2ccccc2C)cc1 [Example 88, (S)-N-((1-(3-(4-ethoxyphenyl)pyridin-2-yl)-2-phenylethyl)carbamoyl)-2-methylbenzenesulfonamide]	6.00 to 7.00	> 100000			
COC(=O)Nc1ccc(-c2cccnc2[C@H](Cc2cc(F)cc(F)c2)NC(=O)NS(=O)(=O)c2ccccc2C)cc1 [Example 89, (S)-methyl (4-(2-(2-(3,5-difluorophenyl)-1-(3-(o-tolylsulfonyl)ureido)ethyl)pyridin-3-yl)phenyl)carbamate]		> 100000	6.00 to 7.00		
Cc1ccccc1S(=O)(=O)NC(=O)N[C@@H](Cc1cc(F)cc(F)c1)c1ncccc1-c1ccc2ccncc2c1 [Example 90, (S)-N-((2-(3,5-difluorophenyl)-1-(3-(isoquinolin-7-yl)pyridin-2-yl)ethyl)carbamoyl)-2-methylbenzenesulfonamide]	6.00 to 7.00	> 100000		6.64	
COC(=O)Nc1ccc(-c2cccnc2[C@H](Cc2cc(F)cc(F)c2)NC(=O)NS(=O)(=O)c2ccccc2Cl)cc1 [Example 91, (S)-methyl (4-(2-(1-(3-((2-chlorophenyl)sulfonyl)ureido)-2-(3,5-difluorophenyl)ethyl)pyridin-3-yl)phenyl)carbamate, TFA]	6.00 to 7.00	> 100000			
O=C(N[C@@H](Cc1cc(F)cc(F)c1)c1ncccc1-c1ccc2ccncc2c1)NS(=O)(=O)c1ccccc1Cl [Example 92, (S)-2-chloro-N-((2-(3,5-difluorophenyl)-1-(3-(isoquinolin-7-yl)pyridin-2-yl)ethyl)carbamoyl)benzenesulfonamide, 2 TFA]	6.00 to 7.00	> 100000			
CCOc1ccc(-c2cccnc2C(Cc2ccccc2)NC(=O)NS(=O)(=O)c2ccccc2C)cc1 (stereo not shown) [Example 93, N-((1-(3-(4-ethoxyphenyl)pyridin-2-yl)-2-phenylethyl)carbamoyl)-2-methylbenzenesulfonamide]	6.00 to 7.00	> 100000		6.38	
CCOc1ccc(-c2cccnc2[C@H](Cc2cc(F)cc(F)c2)NC(=O)NS(=O)(=O)c2ccccc2C)cc1 [Example 94, (S)-N-((2-(3,5-difluorophenyl)-1-(3-(4-ethoxyphenyl)pyridin-2-yl)ethyl)carbamoyl)-2-methylbenzenesulfonamide, TFA]	6.00 to 7.00	> 100000			
NC(=O)c1cc(-c2cccnc2[C@H](Cc2cc(F)cc(F)c2)NC(=O)NS(=O)(=O)c2ccccc2Cl)ccc1F [Example 95, (S)-5-(2-(1-(3-((2-chlorophenyl)sulfonyl)ureido)-2-(3,5-difluorophenyl)ethyl)pyridin-3-yl)-2-fluorobenzamide, TFA]	6.00 to 7.00	> 100000			
COc1ccc(-c2cccnc2[C@H](Cc2cc(F)cc(F)c2)NC(=O)NS(=O)(=O)c2ccccc2C)cc1 [Example 96, (S)-N-((2-(3,5-difluorophenyl)-1-(3-(4-methoxyphenyl)pyridin-2-yl)ethyl)carbamoyl)-2-methylbenzenesulfonamide, TFA]	6.00 to 7.00	> 33000		6.23	
Cc1ccccc1S(=O)(=O)NC(=O)N[C@@H](Cc1cc(F)cc(F)c1)c1ncccc1-c1ccc(F)c(C(N)=O)c1 [Example 97, (S)-5-(2-(2-(3,5-difluorophenyl)-1-(3-(o-tolylsulfonyl)ureido)ethyl)pyridin-3-yl)-2-fluorobenzamide, TFA]	6.00 to 7.00	> 100000			
Cc1ccccc1S(=O)(=O)NC(=O)NC(Cc1ccccc1)c1ncccc1-c1ccc(F)c(C(N)=O)c1 (stereo not shown) [Example 98, 2-fluoro-5-(2-(2-phenyl-1-(3-(o-tolylsulfonyl)ureido)ethyl)pyridin-3-yl)benzamide, TFA]	6.00 to 7.00	> 33000			
O=C(N[C@H](Cc1cc(F)cc(F)c1)c1ncccc1-c1ccc2ccncc2c1)NS(=O)(=O)c1ccccc1Cl [Example 99, (R)-2-chloro-N-((2-(3,5-difluorophenyl)-1-(3-(isoquinolin-7-yl)pyridin-2-yl)ethyl)carbamoyl)benzenesulfonamide, 2 TFA]		> 33000	< 6.00		5.97
Cc1ccccc1S(=O)(=O)NC(=O)N[C@@H](Cc1cc(F)cc(F)c1)c1ncccc1-c1cncc(F)c1 [Example 100, (S)-N-((2-(3,5-difluorophenyl)-1-(5′-fluoro-[3,3′-bipyridin]-2-yl)ethyl)carbamoyl)-2-methylbenzenesulfonamide, 2 TFA]	< 6.00	> 100000			
CC(C)(C)OC(=O)n1cc(-c2cccnc2[C@@H](Cc2cc(F)cc(F)c2)NC(=O)NS(=O)(=O)c2ccccc2Cl)c2ccccc21 [Example 101, (R)-tert-butyl 3-(2-(1-(3-((2-chlorophenyl)sulfonyl)ureido)-2-(3,5-difluorophenyl)ethyl)pyridin-3-yl)-1H-indole-1-carboxylate, TFA]	< 6.00	36000			
O=C(N[C@H](Cc1cc(F)cc(F)c1)c1ncccc1-c1c[nH]c2ccccc12)NS(=O)(=O)c1ccccc1Cl [Example 102, (R)-N-((1-(3-(1H-indol-3-yl)pyridin-2-yl)-2-(3,5-difluorophenyl)ethyl)carbamoyl)-2-chlorobenzenesulfonamide, 2 TFA]	< 6.00	> 33000		4.94	
Cc1ccccc1S(=O)(=O)NC(=O)N[C@H](Cc1cc(F)cc(F)c1)c1ncccc1-c1cncc(F)c1 [Example 103, (R)-N-((2-(3,5-difluorophenyl)-1-(5′-fluoro-[3,3′-bipyridin]-2-yl)ethyl)carbamoyl)-2-methylbenzenesulfonamide, 2 TFA]	< 6.00	> 100000			
Cc1cc(-c2cccnc2[C@@H](Cc2cc(F)cc(F)c2)NC(=O)NS(=O)(=O)c2ccccc2Cl)c(C)s1 [Example 104, (R)-2-chloro-N-((2-(3,5-difluorophenyl)-1-(3-(2,5-dimethylthiophen-3-yl)pyridin-2-yl)ethyl)carbamoyl)benzenesulfonamide, TFA]	< 6.00	> 33000			
CCOc1ccc(-c2cccnc2[C@@H](Cc2ccccc2)NC(=O)NS(=O)(=O)c2ccccc2C)cc1 [Example 105, (R)-N-((1-(3-(4-ethoxyphenyl)pyridin-2-yl)-2-phenylethyl)carbamoyl)-2-methylbenzenesulfonamide, TFA]	< 6.00	75000		4.78	
O=C(N[C@H](Cc1cc(F)cc(F)c1)c1ncccc1-c1cccc(C(=O)NC2CC2)c1)NS(=O)(=O)c1ccccc1Cl [Example 106, (R)-3-(2-(1-(3-((2-chlorophenyl)sulfonyl)ureido)-2-(3,5-difluorophenyl)ethyl)pyridin-3-yl)-N-cyclopropylbenzamide, TFA]	< 6.00	> 100000			
Cc1ccccc1S(=O)(=O)NC(=O)N[C@H](Cc1cc(F)cc(F)c1)c1ncccc1Br [Example 107, (R)-N-((1-(3-bromopyridin-2-yl)-2-(3,5-difluorophenyl)ethyl)carbamoyl)-2-methylbenzenesulfonamide, TFA]	< 6.00	> 33000			
NC(=O)c1cc(-c2cccnc2[C@@H](Cc2cc(F)cc(F)c2)NC(=O)NS(=O)(=O)c2ccccc2Cl)ccc1F [Example 109, (R)-5-(2-(1-(3-((2-chlorophenyl)sulfonyl)ureido)-2-(3,5-difluorophenyl)ethyl)pyridin-3-yl)-2-fluorobenzamide, TFA]	< 6.00	> 100000			
O=C(N[C@H](Cc1cc(F)cc(F)c1)c1ncccc1-c1cncc(F)c1)NS(=O)(=O)c1ccccc1Cl [Example 110, (R)-2-chloro-N-((2-(3,5-difluorophenyl)-1-(5′-fluoro-[3,3′-bipyridin]-2-yl)ethyl)carbamoyl)benzenesulfonamide, TFA]	< 6.00	> 33000			
COC(=O)Nc1ccc(-c2cccnc2[C@@H](Cc2ccccc2)NC(=O)NS(=O)(=O)c2ccccc2Cl)cc1 [Example 111, (R)-methyl (4-(2-(1-(3-((2-chlorophenyl)sulfonyl)ureido)-2-phenylethyl)pyridin-3-yl)phenyl)carbamate, TFA]	< 6.00	82000		4.52	
Cc1ccccc1S(=O)(=O)NC(=O)N[C@H](Cc1ccccc1)c1ncccc1Br [Example 112, (R)-N-((1-(3-bromopyridin-2-yl)-2-phenylethyl)carbamoyl)-2-methylbenzenesulfonamide, TFA]	< 6.00	> 100000			
Cc1ccccc1S(=O)(=O)NC(=O)NC(Cc1ccccc1)c1ncccc1Br (stereo not shown) [Example 116, N-((1-(3-bromopyridin-2-yl)-2-phenylethyl)carbamoyl)-2-methylbenzenesulfonamide, TFA]	< 6.00	> 100000			
Cc1ccccc1S(=O)(=O)NC(=O)N[C@H](Cc1cc(F)cc(F)c1)c1ncccc1-c1ccc(F)c(C(N)=O)c1 [Example 117, (R)-5-(2-(2-(3,5-difluorophenyl)-1-(3-(o-tolylsulfonyl)ureido)ethyl)pyridin-3-yl)-2-fluorobenzamide, TFA]	< 6.00	> 100000		5.08	
